Laboratory results taken from ChEMBL document CHEMBL1151137, “Natural products as a source of potential cancer chemotherapeutic and chemopreventive agents” (1990).
Converted amounts (≈) assume the structure as drawn.

How the values were obtained:
P388 [1] = test: In vivo antitumor activity against mouse P388 cells at 20 mg/kg relative to control; format: functional
[2] = Chemopreventive activity in Chinese hamster embryonic cells assessed as inhibition of benzo[a]pyrene metabolism to water soluble derivatives; format: functional, Cricetulus griseus; conditions: for IC50: Cricetulus griseus, read-out: ID50 (the source's name)
A549 = test: Cytotoxicity against human A549 cells; format: functional; conditions: read-out: ED50 (the source's name)
HT-29 = test: Cytotoxicity against human HT-29 cells; format: functional; conditions: for EC50: Homo sapiens, HT-29, read-out: ED50 (the source's name)
MCF7 = test: Cytotoxicity against human MCF7 cells; format: functional; conditions: read-out: ED50 (the source's name)
P388 [3] = test: In vivo antitumor activity against mouse P388 cells at 50 mg/kg relative to control; format: functional
[4] = Chemopreventive activity in Chinese hamster embryonic cells assessed as inhibition of benzo[a]pyrene metabolism at 10 to 25 ug/ml; format: functional, Cricetulus griseus
[5] = Cytotoxicity against mouse 9PS cells; format: functional; conditions: for EC50: Mus musculus, read-out: ED50 (the source's name)
[6] = Cytotoxicity against human 9KB cells; format: functional; conditions: read-out: ED50 (the source's name)

Row | Structure (SMILES) | EC50 (A549) [µg/mL] | EC50 (HT-29) [µg/mL] | EC50 (MCF7) [µg/mL] | also measured
1 | C[S+]([O-])C[C@@](C)(O)[C@H]1OC(=O)C=C2[C@@]13O[C@@H]3[C@H]1OC(=O)[C@@]3(C)[C@H]4O[C@H]4C[C@@]2(C)[C@@H]13 (some centres undefined) [PODOLACTONE C] | – | – | – | T/C (P388 [1]): 151%
2 | COc1ccc(-c2coc3cc(OC)cc(OC)c3c2=O)cc1 [BIOCHANIN A, DIMETHYL ETHER] | – | – | – | IC50 [2]: 50 µg/mL (≈ 160 µM)
3 | COc1cc(C2Oc3c(OC)cc4c(=O)c5c(OC)cccc5oc4c3OC2CO)ccc1O (centres undefined) | > 10 | > 10 | > 10 | –
4 | COc1cc2c(c3oc4c(O)cccc4c(=O)c13)C[C@H]([C@](C)(O)COC(C)=O)O2 | 2 (≈ 5 µM) | 0.016 (≈ 0.04 µM) | 2.5 (≈ 6.24 µM) | –
5 | CC(C)[C@H]1OC(=O)C=C2[C@@]13O[C@@H]3[C@H]1OC(=O)[C@@]3(C)C=CC[C@@]2(C)[C@@H]13 [PODOLIDE] | – | – | – | T/C (P388 [3]): 127%
6 | COc1ccc(-c2coc3cc(O)cc(O)c3c2=O)cc1 [BIOCHANIN] | – | – | – | inhibition (INH) [4]: 30%; IC50 [2]: 25 µg/mL (≈ 87.9 µM)
7 | CCCCCCCCCCCC[C@H](O)[C@@H]1CC[C@@H]([C@@H](O)CCCCC(O)CCCCCC2CC(CC(C)=O)C(=O)O2)O1 (some centres undefined) [ISOANNONACIN] | 0.02 (≈ 0.0335 µM) | 0.002 (≈ 0.00335 µM) | – | EC50 [5]: 3 µg/mL (≈ 5.03 µM)
8 | O=c1c(-c2ccc(O)cc2)coc2cc(O)cc(O)c12 [GENISTEIN] | – | – | – | IC50 [2]: 30 µg/mL (≈ 111 µM)
9 | CCCCCCCCCCCC[C@H](O)[C@@H]1CC[C@@H]([C@@H](O)CCCCC(=O)CCCCCC2CC(CC(C)=O)C(=O)O2)O1 (some centres undefined) [ISOANNONACINONE] | 0.07 (≈ 0.118 µM) | 0.009 (≈ 0.0151 µM) | – | EC50 [5]: 0.5 µg/mL (≈ 0.841 µM)
10 | COc1cc2c(c3oc4c(O)cccc4c(=O)c13)C[C@H]([C@](C)(O)CO)O2 | > 10 | 2.3 (≈ 6.42 µM) | > 10 | –
11 | O=c1cc(-c2ccccc2)oc2cc(O)cc(O)c12 [CHRYSIN] | – | – | – | IC50 [2]: 12 µg/mL (≈ 47.2 µM)
12 | COc1cccc(C/C(=N/OS(=O)(=O)O)S[C@@H]2O[C@H](CO)[C@@H](O)[C@H](O)[C@H]2O)c1 [GLUCOLIMNANTHIN] | – | – | – | inhibition (INH) [2]: 71%
13 | COc1cc2c(c3oc4c(O)cccc4c(=O)c13)[C@@H]1OC[C@@](C)(O)[C@@H]1O2 [PSOROFEBRIN] | > 10 | 8.5 (≈ 23.9 µM) | > 10 | –
14 | CC(C)c1oc(=O)cc2c1[C@@H](O)[C@H]1OC(=O)[C@@]3(C)[C@@H](O)[C@H]4O[C@H]4[C@@]2(C)[C@@H]13 [NAGILACTONE C] | – | – | – | T/C (P388 [1]): 145%
15 | COc1cc(C2Oc3c(OC)cc4c(=O)c5ccccc5oc4c3OC2CO)cc(OC)c1O (centres undefined) | > 10 | > 10 | > 10 | –
16 | CCCCCCCCCCCC[C@@H](O)[C@H]1CC[C@H]([C@H](O)CCCC[C@H](O)CCCCC[C@@H](O)CC2=CC(C)OC2=O)O1 (some centres undefined) [ANNONACIN] | 0.001 (≈ 0.00168 µM) | 3 (≈ 5.03 µM) | – | ED50 [5]: 1 ×10⁻⁵ ug/ml
17 | COc1ccc(-c2cc(=O)c3c(O)cc(O)cc3o2)cc1 [ACACETIN] | – | – | – | IC50 [2]: 15 µg/mL (≈ 52.8 µM)
18 | COc1cc(C2Oc3c(OC)cc4c(=O)c5ccccc5oc4c3OC2CO)ccc1O (centres undefined) | 3 (≈ 6.87 µM) | 3 (≈ 6.87 µM) | > 10 | –
19 | COc1ccc2c(c1O)-c1c(OC)cc(O)c3c1[C@@H]1[C@H](CC3=O)c3ccccc3O[C@@H]21 [OHIOENSIN E] | 6 (≈ 14.4 µM) | > 10 | > 10 | EC50 [5]: 1 µg/mL (≈ 2.4 µM); EC50 [6]: > 10 µg/mL
20 | COc1cc(O)c2c3c1-c1c(O)cccc1[C@@H]1Oc4ccccc4[C@@H](CC2=O)[C@@H]31 [OHIOENSIN C] | > 10 | 4 (≈ 10.4 µM) | 3 (≈ 7.76 µM) | EC50 [5]: > 10 µg/mL; EC50 [6]: 10 µg/mL (≈ 25.9 µM)
21 | COc1ccc(-c2coc3cc(OC)cc(O)c3c2=O)cc1 [4',7-DIMETHOXY-5-HYDROXYGENISTEIN] | – | – | – | IC50 [2]: > 50 µg/mL
22 | COc1cc(C2Oc3c(OC)cc4c(=O)c5c(OC)cccc5oc4c3OC2COC(C)=O)ccc1O (centres undefined) | 4 (≈ 7.87 µM) | 4 (≈ 7.87 µM) | > 10 | –
23 | O=C1C[C@@H]2c3ccccc3O[C@H]3c4cc(O)ccc4-c4c(O)cc(O)c1c4[C@H]23 [OHIOENSIN A] | > 10 | > 10 | 9 (≈ 24.2 µM) | EC50 [5]: 1 µg/mL (≈ 2.69 µM); EC50 [6]: > 10 µg/mL
24 | O=C1C[C@@H]2c3ccccc3O[C@H]3c4cccc(O)c4-c4c(O)cc(O)c1c4[C@H]23 [OHIOENSIN B] | 8 (≈ 21.5 µM) | > 10 | 7 (≈ 18.8 µM) | EC50 [5]: 1 µg/mL (≈ 2.69 µM); EC50 [6]: > 10 µg/mL
25 | COc1cc(C2Oc3ccc4c(=O)c5c(O)cc(O)cc5oc4c3OC2CO)cc(OC)c1O (centres undefined) | 3 (≈ 6.4 µM) | 0.4 (≈ 0.854 µM) | > 10 | –
26 | O=c1cc(-c2ccc(O)cc2)oc2cc(O)cc(O)c12 [APIGENIN] | – | – | – | IC50 [2]: 17 µg/mL (≈ 62.9 µM)
27 | COc1cc(C2Oc3c(OC)cc4c(=O)c5c(OC)cccc5oc4c3OC2CO)cc(OC)c1O (centres undefined) | > 10 | > 10 | > 10 | –
28 | CCCCCCCCCCCC[C@@H](O)[C@H]1CC[C@H]([C@H](O)CCCCC(=O)CCCCC[C@@H](O)CC2=C[C@H](C)OC2=O)O1 [ANNONACINONE] | 0.1 (≈ 0.168 µM) | 1 (≈ 1.68 µM) | – | ED50 [5]: 1 ×10⁻⁶ ug/ml
29 | COc1cc(O)c2c3c1-c1c(ccc(O)c1O)[C@@H]1Oc4ccccc4[C@@H](CC2=O)[C@@H]31 [OHIOENSIN D] | > 10 | > 10 | > 10 | EC50 [5]: 1 µg/mL (≈ 2.49 µM); EC50 [6]: > 10 µg/mL
30 | COc1cc2c(c3oc4c(O)cccc4c(=O)c13)C[C@H]([C@@]1(C)CO1)O2 [PSOROSPERMIN] | 0.0016 (≈ 0.0047 µM) | – | 0.012 (≈ 0.0353 µM) | ED50 (HT-29): >1 ×10⁻⁵ ug/ml
